Converted amounts (≈) assume the structure as drawn. Read-outs that look alike come from different tables or passages of the source.
Key:
[1] = system: intracellular S. flexneri 5a M90T in TC7 cells; experiment: microbe, parasite or virus in culture; format: cell-based, Shigella flexneri; details: for IC50: Shigella flexneri, TC7, 14 h; for Fluorescence intensity (RFU), Mean, 0.5 x MIC / Fluorescence intensity (RFU), Mean, 2 x MIC / Fluorescence intensity (RFU), Mean, 4 x MIC / Fluorescence intensity (RFU), Mean, 8 x MIC / Fluorescence intensity (RFU), Mean, 16 x MIC / Fluorescence intensity (RFU), Mean, 32 x MIC / Fluorescence intensity (RFU), Mean, MIC / Fluorescence intensity (RFU), Mean, 0.0625 x MIC / Fluorescence intensity (RFU), Mean, 0.125 x MIC / Fluorescence intensity (RFU), Mean, 0.25 x MIC: TC7 cells infected with GFP-expressing S. flexneri, 14 h treatment
Text: Nonproliferating bacterial pathogens frequently inhabit intracellular environments, but establishing relevant infection models for high-throughput testing is challenging. Therefore, we firstly tested ability of the hit compounds to cross the eukaryotic cytoplasmic membrane barrier and inhibit growth of S. flexneri within the cytoplasm of the TC7 human colon adenocarcinoma cell line[59]. To this end, we developed a new, fluorescence-based method that enables real-time monitoring of growth of intracellular Shigella. We used S. flexneri 5a M90T strain producing the AfaE adhesin that enhances bacterial adhesion to epithelial cells and allows synchronization of invasion. The strain was further modified to constitutively express super-folder GFP (sfGFP), which enables monitoring bacterial growth by fluorescence measurement. The epithelial cells were grown to confluence and infected with bacteria at an MOI (multiplicity of infection) of 50. […] Following bacterial adhesion and invasion, the cells were incubated with varying concentrations of the hit compounds and intracellular bacterial growth was tracked by measuring green fluorescence.
The cells were split using trypsin, seeded in 96-well plates for infection, and grown to confluence, corresponding to approximately 40,000 cells per well.
A single colony of S. flexneri was inoculated into TSB supplemented with 50 μg/ml spectinomycin and incubated overnight at 37°C with agitation. The overnight culture was diluted 1:200 in fresh TSB, and the bacteria were grown at 37 °C until the OD600 reached 0.3–0.4, corresponding to approximately 2 × 10^7 CFU/ml. Bacteria were pelleted by centrifugation, washed twice with sterile PBS, and resuspended in infection solution (serum-free DMEM supplemented with 20 mM HEPES, pH 7.4). Just prior to infection, the medium was withdrawn, and the cells were washed twice with sterile PBS. The bacterial inoculum (MOI 50, 2 × 10^7 CFU/ml) was added to all wells except the no-infection control. The plates were incubated at room temperature for 15 min to allow bacterial adhesion, followed by a 1 h incubation at 37 °C with 5% CO2 to facilitate bacterial invasion.
Twofold serial dilutions of the drugs were prepared in infection solution containing 50 μg/ml gentamicin in a 96-well plate. After the invasion period, the bacterial inoculum was removed, and the serial dilutions of the drugs were added to the wells, except for the no-drug control. […] […] The experiments were performed in triplicates on separate days.
Statistical significance of the drug effects was assessed using a one-way ANOVA followed by Dunnett’s test, comparing each treatment to the drug-free control. Statistical significance of the differences in chemical characteristics between the hit compounds and the Prestwick library was assessed using a Mann–Whitney test. Statistical significance was set at P ≤ 0.05. A five-parameter logistic equation was used for asymmetric sigmoidal curve fitting and for EC50 and IC50 determination. The Venn diagram in Fig. 1F was prepared using BioVenn web application. Characteristics of the chemical and physical properties of Prestwick library compounds were obtained from Supplementary Table S1 from reference. Characteristics of the hit compounds not included in the Prestwick library were retrieved from the PubChem database.

P. aeruginosa DSM1117 = experiment: MIC, standard microdilution assay, growing P. aeruginosa; format: cell-based, Pseudomonas aeruginosa; details: P. aeruginosa
Outline: (§1)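 Standard microdilution protocol, triplicate wells. For S. flexneri the growth medium is TSB. The other three strains are grown in HEPES-buffered (40 mM, pH 7.4) CA-MHB, and UPEC is also run at pH 5.5 in LPM containing 30 mM MES.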

[2] = system: non-growing P. aeruginosa DSM1117; experiment: Dilution-regrowth assay (OD600, start-growth-time) on stationary-phase P. aeruginosa; format: cell-based, Pseudomonas aeruginosa; details: P. aeruginosa; for Regrowth, OD600 at 6h or 8h after dilution into drug-free medium: average; for EC50: Pseudomonas aeruginosa, DSM1117, regrowth delay of non-growing bacteria, 1:4 CA-MHB pH 7.4, 24 h treatment, OD600 8 h after dilution, read-out: EC50; for Regrowth: OD600 after dilution into drug-free medium (mean): OD600 at 6h or 8h
Experimental: To determine the spectrum of activity of the compounds that were effective against non-growing UPEC, we further assessed their efficacy against the well-characterized Gram-negative and Gram-positive reference strains P. aeruginosa DSM1117 and S. aureus DSM2569, respectively. The cultures were grown and treated for 24 h in 1:4 CA-MHB (pH 7.4). […].
For better characterization of the compounds causing the strongest regrowth delay, we performed the regrowth step of the dilution-regrowth experiments on a plate reader, measuring the OD600 at 20-min intervals for over 20 h instead of using an endpoint measurement. This approach allowed us to capture the time when cultures reached a threshold optical density (start-growth-time, SGT[15]).
Overnight cultures of UPEC, P. aeruginosa and S. aureus were grown in test tubes containing 3 ml of LB broth (~16 h), then diluted 1:100 into either 1:4 diluted CA-MHB medium buffered with 40 mM HEPES (pH 7.4) or, in case of UPEC, into LPM medium[25] supplemented with 49 µM MgCl2 and buffered with 30 mM MES (pH 5.5). The cultures were incubated for 24 h in non-baffled Erlenmeyer flasks at 37 °C with shaking at 200 rpm.
For P. aeruginosa and S. aureus, dose–response analysis was conducted in 96-well plates with a 200 μl assay volume, following the procedure used for screening assay validation experiments. Aliquots of the 39 compounds active against non-growing UPEC were obtained from SelleckChem and MedChem Express. Stock solutions were prepared and stored according to the manufacturers’ instructions, then diluted in 10% DMSO before use. Cultures were incubated for 24 h in 1:4 diluted CA-MHB medium under the same conditions used for UPEC cultivation. In preliminary experiments, each compound was tested at a concentration of 20 μM in the dilution-regrowth assay with 4 technical replicates. Regrowth was monitored using a microplate reader at 37 °C with continuous shaking, and OD600 was recorded every 20 min. The time at which OD600 exceeded the threshold of 0.12 was recorded as the Start_Growth-Time.
The statistical analysis of all data, as well as EC50 and IC50 determination, was conducted using GraphPad Prism 10.2.3. Statistical significance of the drug effects was assessed using a one-way ANOVA followed by Dunnett’s test, comparing each treatment to the drug-free control. Statistical significance of the differences in chemical characteristics between the hit compounds and the Prestwick library was assessed using a Mann–Whitney test. Statistical significance was set at P ≤ 0.05. A five-parameter logistic equation was used for asymmetric sigmoidal curve fitting and for EC50 and IC50 determination. The Venn diagram in Fig. 1F was prepared using BioVenn web application. Characteristics of the chemical and physical properties of Prestwick library compounds were obtained from Supplementary Table S1 from reference. Characteristics of the hit compounds not included in the Prestwick library were retrieved from the PubChem database.

S. flexneri 5a M90T = experiment: MIC in tryptic soy broth, S. flexneri; format: cell-based, Shigella flexneri; details: for MIC: Shigella flexneri, 5AM90T, read-out: MIC (μM) TSB
Outline: as §1

E. coli CFT073 (UPEC) = experiment: MIC, standard microdilution assay, growing UPEC; format: cell-based, Escherichia coli; details: E. coli; for MIC (μM) CA-MHB +PAβN: CA-MHB with 10 μg/ml efflux pump inhibitor PaβN
Outline: as §1

[3] = Pseudomonas aeruginosa, DSM1117, 1:4 diluted CA-MHB pH 7.4, read-out: MIC (μM) 1:4 CA-MHB
[4] = Pseudomonas aeruginosa, DSM1117, CA-MHB pH 7.4, read-out: MIC (μM) CA-MHB
[5] = Escherichia coli, pH 7.4, CA-MHB, read-out: MIC (μM) CA-MHB
[6] = Escherichia coli, LPM pH 5.5, read-out: MIC
[7] = Escherichia coli, pH 7.4, 1:4 diluted CA-MHB, read-out: MIC (μM) 1:4 CA-MHB

Molecule | IC50 [1] [µM] | Fluorescence intensity (RFU), Mean, 0.5 x MIC [1] [RFU] | Fluorescence intensity (RFU), Mean, 2 x MIC [1] [RFU] | Fluorescence intensity (RFU), Mean, 4 x MIC [1] [RFU] | Fluorescence intensity (RFU), Mean, 8 x MIC [1] [RFU] | Fluorescence intensity (RFU), Mean, 16 x MIC [1] [RFU] | Fluorescence intensity (RFU), Mean, 32 x MIC [1] [RFU] | Fluorescence intensity (RFU), Mean, MIC [1] [RFU] | MIC (P. aeruginosa DSM1117; [3]) [µM] | MIC (P. aeruginosa DSM1117; [4]) [µM] | EC50 [2] [µM] | MIC (S. flexneri 5a M90T) [µM] | MIC (E. coli CFT073 (UPEC); [5]) [µM] | MIC (E. coli CFT073 (UPEC); [6]) [µM] | MIC (E. coli CFT073 (UPEC); [7]) [µM] | Fluorescence intensity (RFU), Mean, 0.0625 x MIC [1] [RFU] | Fluorescence intensity (RFU), Mean, 0.125 x MIC [1] [RFU] | Fluorescence intensity (RFU), Mean, 0.25 x MIC [1] [RFU] | MIC (μM) CA-MHB +PAβN (E. coli CFT073 (UPEC); pH 7.4) [µM] | other results
N[C@@H]1CCCCN(c2c(F)cc3c(=O)c(C(=O)O)cn(C4CC4)c3c2Cl)C1 [Besifloxacin] | 0.331 | 8982.33 | 4305.25 | 3977.14 | 2983.69 | 2325.53 | 1789.06 | 5856.42 | 8 (≈ 3.15 µg/mL) | 4 (≈ 1.58 µg/mL) | 0.266 | 0.25 (≈ 0.0985 µg/mL) | 0.25 (≈ 0.0985 µg/mL) |  |  |  |  |  |  | increase of MIC in diluted CA-MHB versus CA-MHB (P. aeruginosa DSM1117): twofold; Regrowth, OD600 at 6h or 8h after dilution into drug-free medium ([2]; concentration 0.1): 0.563; Regrowth, OD600 at 6h or 8h after dilution into drug-free medium ([2]; concentration 0.5): 0.201; Regrowth, OD600 at 6h or 8h after dilution into drug-free medium ([2]; concentration 2.5): 0.091; Regrowth, OD600 at 6h or 8h after dilution into drug-free medium ([2]; concentration 10): 0.090
CO[C@H]1/C=C/O[C@@]2(C)Oc3c(C)c(O)c4c(c3C2=O)C2=NC3(CCN(CC(C)C)CC3)NC2=C(NC(=O)/C(C)=C\C=C\[C@H](C)[C@H](O)[C@@H](C)[C@@H](O)[C@@H](C)[C@H](OC(C)=O)[C@@H]1C)C4=O [Rifabutin] |  |  |  |  |  |  |  |  | 10 (≈ 8.47 µg/mL) | 40 (≈ 33.9 µg/mL) | 0.942 | 32 (≈ 27.1 µg/mL) | 8 (≈ 6.78 µg/mL) | 2 (≈ 1.69 µg/mL) | 0.625 (≈ 0.529 µg/mL) |  |  |  |  | Regrowth: OD600 after dilution into drug-free medium (mean) ([2]; concentration 0.1): 0.637; Regrowth: OD600 after dilution into drug-free medium (mean) ([2]; concentration 0.5): 0.579; Regrowth: OD600 after dilution into drug-free medium (mean) ([2]; concentration 2.5): 0.109; Regrowth: OD600 after dilution into drug-free medium (mean) ([2]; concentration 10): 0.093
CO[C@H]1/C=C/O[C@@]2(C)Oc3c(C)c(O)c4c(O)c(c(/C=N/N5CCN(C)CC5)c(O)c4c3C2=O)NC(=O)/C(C)=C\C=C\[C@H](C)[C@H](O)[C@@H](C)[C@@H](O)[C@@H](C)[C@H](OC(C)=O)[C@@H]1C [Rifampicin] | 3.23 | 4149.04 | 1695.78 | 1392.42 | 1299.69 | 1165.58 | 1042.53 | 2886.31 |  | 80 (≈ 65.8 µg/mL) |  | 8 (≈ 6.58 µg/mL) | 8 (≈ 6.58 µg/mL) | 0.5 (≈ 0.411 µg/mL) | 5 (≈ 4.11 µg/mL) | 10229.8 | 10528.2 | 10619.3 | 1 (≈ 0.823 µg/mL) | 
CO[C@H]1/C=C/O[C@@]2(C)Oc3c(C)c(O)c4c(O)c(c(/C=N/N5CCN(C6CCCC6)CC5)c(O)c4c3C2=O)NC(=O)/C(C)=C\C=C\[C@H](C)[C@H](O)[C@@H](C)[C@@H](O)[C@@H](C)[C@H](OC(C)=O)[C@@H]1C [Rifapentine] | 3.09 | 1616.31 | 1321.39 | 1243.06 | 1167.19 | 915.083 |  | 1458.03 |  | 80 (≈ 70.2 µg/mL) |  | 16 (≈ 14 µg/mL) | 8 (≈ 7.02 µg/mL) | 0.25 (≈ 0.219 µg/mL) | 5 (≈ 4.39 µg/mL) | 10012.8 | 10655.7 | 3668.46 |  | 
C=C[C@]1(C)C[C@@H](OC(=O)CSC(C)(C)CNC(=O)[C@H](N)C(C)C)[C@]2(C)[C@H](C)CC[C@]3(CCC(=O)[C@H]32)[C@@H](C)[C@@H]1O [Valnemulin] |  |  |  |  |  |  |  |  | > 160 | > 160 | 0.324 | 16 (≈ 9.04 µg/mL) | 20 (≈ 11.3 µg/mL) |  | 10 (≈ 5.65 µg/mL) |  |  |  | 10 (≈ 5.65 µg/mL) | 
Bleomycin |  |  |  |  |  |  |  |  |  |  |  |  |  |  |  |  |  |  |  | inhibition of intracellular Shigella ([1]; TC7 cells): inactive; MIC (P. aeruginosa DSM1117; CA-MHB pH 7.4, read-out: MIC (μM) CA-MHB): >100 µM; MIC (μM) TSB (S. flexneri 5a M90T; S. flexneri, extracellular bacteria in TSB): 0.25 µM; MIC (E. coli CFT073 (UPEC); LPM pH 5.5, read-out: MIC): 0.5 µM; MIC (E. coli CFT073 (UPEC); pH 7.4, CA-MHB, read-out: MIC (μM) CA-MHB): 0.5 µM
